From ChEMBL document CHEMBL1201862, “PubChem BioAssay data set” (2004)
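These data come from cells grown in 96-well plates and exposed to compound for 48 hours at five concentrations. GI50 marks 50% less growth.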 Calls of active or inactive are those of the source. Rule as the data show it: active = GI50 up to about 1.1 µM and inactive = higher.

Experiments:
Test in all cases: NCI tumour cell line growth inhibition, 48 h
IGROV-1 = test system: IGROV-1
Malme-3M = test system: Malme-3M
NCI/ADR-RES = test system: NCI/ADR-RES
M14 = test system: M14
K562 = test system: K562
SK-MEL-5 = test system: SK-MEL-5
MDA-N = test system: MDA-N
HT-29 = test system: HT-29
HOP-92 = test system: HOP-92
SN12C = test system: SN12C
RXF 393 = test system: RXF 393
UACC-257 = test system: UACC-257
UO-31 = test system: UO-31
HOP-62 = test system: HOP-62
T47D = test system: T47D
MCF7 = test system: MCF7
PC-3 = test system: PC-3
A549 = test system: A549
U-251 = test system: U-251
SR = test system: SR
EKVX = test system: EKVX
Hs-578T = test system: Hs-578T
COLO 205 = test system: COLO 205
KM12 = test system: KM12
SW-620 = test system: SW-620
HCC 2998 = test system: HCC 2998
HCT-15 = test system: HCT-15
SK-OV-3 = test system: SK-OV-3
SF-268 = test system: SF-268
OVCAR-4 = test system: OVCAR-4
SNB-75 = test system: SNB-75
SK-MEL-28 = test system: SK-MEL-28
ACHN = test system: ACHN
CCRF-CEM = test system: CCRF-CEM
OVCAR-8 = test system: OVCAR-8
UACC-62 = test system: UACC-62
OVCAR-3 = test system: OVCAR-3
MOLT-4 = test system: MOLT-4
MDA-MB-435 = test system: MDA-MB-435
SK-MEL-2 = test system: SK-MEL-2
NCI-H460 = test system: NCI-H460
DU-145 = test system: DU-145
HCT-116 = test system: HCT-116
A498 = test system: A498
786-0 = test system: 786-0
SF-295 = test system: SF-295
TK-10 = test system: TK-10
NCI-H226 = test system: NCI-H226
CAKI-1 = test system: CAKI-1
RPMI-8226 = test system: RPMI-8226
OVCAR-5 = test system: OVCAR-5
NCI-H23 = test system: NCI-H23
MDA-MB-231 = test system: MDA-MB-231
BT-549 = test system: BT-549
SNB-19 = test system: SNB-19
HL-60 = test system: HL-60
SF-539 = test system: SF-539
NCI-H522 = test system: NCI-H522
LOX IMVI = test system: LOX IMVI

Q: Which GI50 (IGROV-1) does the source give for `C[C@@H](NC(=O)[C@@H]1C[C@]1(C)CO)c1cccc2ccccc12` here?
A: The GI50 was > 100 µM (inactive).

Q: What about the GI50 (Malme-3M) of the same compound?
A: The GI50 was > 100 µM (inactive).

Q: What about the GI50 (NCI/ADR-RES) of the same compound?
A: Its GI50 is > 100 µM (inactive).

Q: And the GI50 (M14)?
A: Its GI50 is > 100 µM (inactive).

Q: And the GI50 (K562)?
A: The GI50 was > 100 µM (inactive).

Q: And the GI50 (SK-MEL-5)?
A: The GI50 was > 100 µM (inactive).

Q: And the GI50 (MDA-N)?
A: The GI50 was > 100 µM (inactive).

Q: And the GI50 (HT-29)?
A: The GI50 was > 100 µM (inactive).

Q: And the GI50 (HOP-92)?
A: Its GI50 is > 100 µM (inactive).

Q: And the GI50 (SN12C)?
A: The GI50 was > 100 µM (inactive).

Q: What about the GI50 (RXF 393) of the same compound?
A: Its GI50 is > 100 µM (inactive).

Q: And the GI50 (UACC-257)?
A: The GI50 was > 100 µM (inactive).

Q: And the GI50 (UO-31)?
A: Its GI50 is > 100 µM (inactive).

Q: And the GI50 (HOP-62)?
A: The GI50 was > 100 µM (inactive).

Q: And the GI50 (T47D)?
A: Its GI50 is > 100 µM (inactive).

Q: What about the GI50 (MCF7) of the same compound?
A: Its GI50 is > 100 µM (inactive).

Q: What about the GI50 (PC-3) of the same compound?
A: Its GI50 is > 100 µM (inactive).

Q: And the GI50 (A549)?
A: Its GI50 is > 100 µM (inactive).

Q: What about the GI50 (U-251) of the same compound?
A: The GI50 was > 100 µM (inactive).

Q: And the GI50 (SR)?
A: The GI50 was > 100 µM (inactive).

Q: What about the GI50 (EKVX) of the same compound?
A: Its GI50 is > 100 µM (inactive).

Q: And the GI50 (Hs-578T)?
A: Its GI50 is > 100 µM (inactive).

Q: What about the GI50 (COLO 205) of the same compound?
A: Its GI50 is > 100 µM (inactive).

Q: And the GI50 (KM12)?
A: Its GI50 is > 100 µM (inactive).

Q: What about the GI50 (SW-620) of the same compound?
A: The GI50 was > 100 µM (inactive).

Q: And the GI50 (HCC 2998)?
A: The GI50 was > 100 µM (inactive).

Q: What about the GI50 (HCT-15) of the same compound?
A: The GI50 was over 100 µM.

Q: And the GI50 (SK-OV-3)?
A: The GI50 was > 100 µM (inactive).

Q: What about the GI50 (SF-268) of the same compound?
A: Its GI50 is > 100 µM (inactive).

Q: What about the GI50 (OVCAR-4) of the same compound?
A: The GI50 was > 100 µM (inactive).

Q: What about the GI50 (SNB-75) of the same compound?
A: Its GI50 is > 100 µM (inactive).

Q: And the GI50 (SK-MEL-28)?
A: The GI50 was > 100 µM (inactive).

Q: And the GI50 (ACHN)?
A: The GI50 was > 100 µM (inactive).

Q: What about the GI50 (CCRF-CEM) of the same compound?
A: Its GI50 is > 100 µM (inactive).

Q: What about the GI50 (OVCAR-8) of the same compound?
A: Its GI50 is > 100 µM (inactive).

Q: And the GI50 (UACC-62)?
A: The GI50 was > 100 µM (inactive).

Q: What about the GI50 (OVCAR-3) of the same compound?
A: The GI50 was > 100 µM (inactive).

Q: And the GI50 (MOLT-4)?
A: Its GI50 is > 100 µM (inactive).

Q: What about the GI50 (MDA-MB-435) of the same compound?
A: Its GI50 is > 100 µM (inactive).

Q: What about the GI50 (SK-MEL-2) of the same compound?
A: The GI50 was > 100 µM (inactive).

Q: And the GI50 (NCI-H460)?
A: Its GI50 is > 100 µM (inactive).

Q: What about the GI50 (DU-145) of the same compound?
A: The GI50 was > 100 µM (inactive).

Q: And the GI50 (HCT-116)?
A: Its GI50 is > 100 µM (inactive).

Q: And the GI50 (A498)?
A: Its GI50 is > 100 µM (inactive).

Q: What about the GI50 (786-0) of the same compound?
A: Its GI50 is > 100 µM (inactive).

Q: And the GI50 (SF-295)?
A: Its GI50 is > 100 µM (inactive).

Q: And the GI50 (TK-10)?
A: Its GI50 is > 100 µM (inactive).

Q: What about the GI50 (NCI-H226) of the same compound?
A: Its GI50 is > 100 µM (inactive).

Q: And the GI50 (CAKI-1)?
A: The GI50 was > 100 µM (inactive).

Q: And the GI50 (RPMI-8226)?
A: The GI50 was > 100 µM (inactive).

Q: And the GI50 (OVCAR-5)?
A: Its GI50 is > 100 µM (inactive).

Q: And the GI50 (NCI-H23)?
A: The GI50 was > 100 µM (inactive).

Q: What about the GI50 (MDA-MB-231) of the same compound?
A: The GI50 was > 100 µM (inactive).

Q: And the GI50 (BT-549)?
A: The GI50 was > 100 µM (inactive).

Q: What about the GI50 (SNB-19) of the same compound?
A: Its GI50 is > 100 µM (inactive).

Q: What does the source list for `O=C(O)CSCc1cccc2ccccc12`?
A: GI50 (IGROV-1): > 100 µM (inactive); GI50 (Malme-3M): > 100 µM (inactive); GI50 (NCI/ADR-RES): > 100 µM (inactive); GI50 (M14): > 100 µM (inactive); GI50 (K562): > 100 µM (inactive); GI50 (SK-MEL-5): > 100 µM (inactive); GI50 (MDA-N): > 100 µM (inactive); GI50 (HT-29): > 100 µM (inactive); GI50 (HOP-92): > 100 µM (inactive); GI50 (SN12C): > 100 µM (inactive); GI50 (RXF 393): > 100 µM (inactive); GI50 (UACC-257): 62.1 µM (inactive); GI50 (UO-31): > 100 µM (inactive); GI50 (HOP-62): > 100 µM (inactive); GI50 (T47D): > 100 µM (inactive); GI50 (MCF7): > 100 µM (inactive); GI50 (HL-60): > 100 µM (inactive); GI50 (SF-539): > 100 µM (inactive); GI50 (PC-3): > 100 µM (inactive); GI50 (A549): > 100 µM (inactive); GI50 (U-251): > 100 µM (inactive); GI50 (SR): > 100 µM (inactive); GI50 (EKVX): 19.4 µM (inactive); GI50 (Hs-578T): > 100 µM (inactive); GI50 (COLO 205): > 100 µM (inactive); GI50 (KM12): > 100 µM (inactive); GI50 (SW-620): > 100 µM (inactive); GI50 (HCT-15): > 100 µM; GI50 (SK-OV-3): > 100 µM (inactive); GI50 (SF-268): > 100 µM (inactive); GI50 (OVCAR-4): > 100 µM (inactive); GI50 (SNB-75): > 100 µM (inactive); GI50 (SK-MEL-28): > 100 µM (inactive); GI50 (ACHN): > 100 µM (inactive); GI50 (CCRF-CEM): > 100 µM (inactive); GI50 (OVCAR-8): > 100 µM (inactive); GI50 (UACC-62): > 100 µM (inactive); GI50 (NCI-H522): > 100 µM (inactive); GI50 (OVCAR-3): > 100 µM (inactive); GI50 (MOLT-4): > 100 µM (inactive); GI50 (MDA-MB-435): > 100 µM (inactive); GI50 (SK-MEL-2): > 100 µM (inactive); GI50 (NCI-H460): > 100 µM (inactive); GI50 (DU-145): > 100 µM (inactive); GI50 (HCT-116): > 100 µM (inactive); GI50 (A498): > 100 µM (inactive); GI50 (786-0): > 100 µM (inactive); GI50 (SF-295): > 100 µM (inactive); GI50 (TK-10): 48.8 µM (inactive); GI50 (NCI-H226): > 100 µM (inactive); GI50 (CAKI-1): > 100 µM (inactive); GI50 (RPMI-8226): > 100 µM (inactive); GI50 (OVCAR-5): > 100 µM (inactive); GI50 (LOX IMVI): > 100 µM (inactive); GI50 (NCI-H23): > 100 µM (inactive); GI50 (MDA-MB-231): > 100 µM (inactive); GI50 (BT-549): > 100 µM (inactive); GI50 (SNB-19): > 100 µM (inactive)
